Measurements reported in patent US7915239B2, “Process for treating lameness administration of a bisphosphonic acid derivative” (Ceva Sante Animale, priority 1998, dated 2011).

Key:
Format in all cases: in vivo
[1] = tested on: lameness during navicular disease (podotrochlear syndrome); assay: Clinical study in horses with lameness during navicular disease (podotrochlear syndrome); conditions: for percentage of animals in category Average / percentage of animals in category Favourable / percentage of animals in category Mediocre / percentage of animals in category Poor / percentage of animals in category Very favourable: 0.1 mg/kg i.v. weekly for 6 to 10 weeks
Procedure: A clinical study was carried out to evaluate the effects of a treatment with disodium tiludronate on horses which develop lameness during navicular disease (also known as podotrochlear syndrome). The study was carried out on 24 horses, the diagnosis of the navicular disease causing lameness being based on the following criteria: • local signs in the palmar region: heat, swelling, pain • functional signs of limping graded on a scale from 0 (no sign of limping) to 4 (trouble in bearing weight when at rest and/or in motion and difficulty in moving around) • a functional test of locomotion after flexing the palmar region, also assessed on a scale from 0 (locomotion not changed by flexure) to 4 (start of suppression of bearing weight) • a radiological examination to assess radiological signs in the palmar region qualitatively. To be included, the animal had to show no signs or lesions of septic arthritis, or any fractures of the bones in the palmar region. Also, it needed to have not received an injection for anti-inflammatory treatment in the joints of the palmar region. The wearing of an orthopaedic shoe was not contra-indicated since most of the animals had been […] for several weeks and were already wearing a shoe of this type. All the animals received, as a single treatment, disodium tiludronate in the form of an injectable solution administered intravenously at a dose of 0.1 mg/kg, at a weekly administration rate for 6 to 10 weeks. The first day of treatment corresponds to D0. To assess the effects of the treatment, the animals were reviewed 1 month after D0 (M1), 2 months after D0 (M2) and 6 months after D0 (M6). The effects of the treatment were assessed with regard to: • the local signs, the functional signs and the test of locomotion after flexure as defined during inclusion of the animal into the test • a radiological examination to assess the change in the radiological signs • an assessment of the resumption of the animal's sporting activity. […] The table below summarizes the effects of the treatment (expressed as a percentage of animals present in each category): […]

[2] = tested on: lameness associated with bone lesions during osteochondrosis; assay: Clinical study in horses with lameness associated with sub-chondral cysts during osteochondrosis; conditions: procedure as Example 1
Procedure: The study was carried out on 24 horses, the diagnosis of the navicular disease causing lameness being based on the following criteria: • local signs in the palmar region: heat, swelling, pain • functional signs of limping graded on a scale from 0 (no sign of limping) to 4 (trouble in bearing weight when at rest and/or in motion and difficulty in moving around) • a functional test of locomotion after flexing the palmar region, also assessed on a scale from 0 (locomotion not changed by flexure) to 4 (start of suppression of bearing weight) • a radiological examination to assess radiological signs in the palmar region qualitatively. All the animals received, as a single treatment, disodium tiludronate in the form of an injectable solution administered intravenously at a dose of 0.1 mg/kg, at a weekly administration rate for 6 to 10 weeks. The first day of treatment corresponds to D0. To assess the effects of the treatment, the animals were reviewed 1 month after D0 (M1), 2 months after D0 (M2) and 6 months after D0 (M6). The effects of the treatment were assessed with regard to: • the local signs, the functional signs and the test of locomotion after flexure as defined during inclusion of the animal into the test • a radiological examination to assess the change in the radiological signs • an assessment of the resumption of the animal's sporting activity. […] A clinical study was carried out to evaluate the effects of a treatment with disodium tiludronate on horses which develop lameness associated with bone lesions in the form of sub-chondral cysts during osteochondrosis. The test procedure and the clinical monitoring of the animals were the same as those described in Example 1, except that the local, functional and radiological signs were evaluated in the joints affected by osteochondrosis. 5 horses were included in this test. The results obtained were as follows (expressed as a percentage of animals present in each category): […]

[3] = tested on: lameness during bone spavin; assay: Clinical study in horses with lameness during bone spavin (osteoarthrosis of the distal stage of the tarsus); conditions: for percentage of animals in category Average / percentage of animals in category Favourable / percentage of animals in category Mediocre / percentage of animals in category Poor / percentage of animals in category Very favourable: procedure as Example 1
Procedure: The study was carried out on 24 horses, the diagnosis of the navicular disease causing lameness being based on the following criteria: • local signs in the palmar region: heat, swelling, pain • functional signs of limping graded on a scale from 0 (no sign of limping) to 4 (trouble in bearing weight when at rest and/or in motion and difficulty in moving around) • a functional test of locomotion after flexing the palmar region, also assessed on a scale from 0 (locomotion not changed by flexure) to 4 (start of suppression of bearing weight) • a radiological examination to assess radiological signs in the palmar region qualitatively.
All the animals received, as a single treatment, disodium tiludronate in the form of an injectable solution administered intravenously at a dose of 0.1 mg/kg, at a weekly administration rate for 6 to 10 weeks. The first day of treatment corresponds to D0.
To assess the effects of the treatment, the animals were reviewed 1 month after D0 (M1), 2 months after D0 (M2) and 6 months after D0 (M6). The effects of the treatment were assessed with regard to: • the local signs, the functional signs and the test of locomotion after flexure as defined during inclusion of the animal into the test • a radiological examination to assess the change in the radiological signs • an assessment of the resumption of the animal's sporting activity.
A clinical study was carried out in order to evaluate the effects of a treatment with disodium tiludronate on horses which develop lameness during bone spavin (which is osteoarthrosis of the distal stage of the tarsus).
The test procedure and the clinical monitoring of the animals were the same as those described in Example 1, except that the local, functional and radiological signs were assessed in the region of the hock.
5 horses were included in this test.
The results obtained were as follows (expressed as a percentage of animals present in each category): […]

[4] = tested on: lameness during enthesopathy of the insertion of the tendons and the ligaments; assay: Clinical study in horses with lameness during enthesopathy of the insertion of the tendons and the ligaments; conditions: procedure as Example 1
Procedure: The study was carried out on 24 horses, the diagnosis of the navicular disease causing lameness being based on the following criteria: • local signs in the palmar region: heat, swelling, pain • functional signs of limping graded on a scale from 0 (no sign of limping) to 4 (trouble in bearing weight when at rest and/or in motion and difficulty in moving around) • a functional test of locomotion after flexing the palmar region, also assessed on a scale from 0 (locomotion not changed by flexure) to 4 (start of suppression of bearing weight) • a radiological examination to assess radiological signs in the palmar region qualitatively. All the animals received, as a single treatment, disodium tiludronate in the form of an injectable solution administered intravenously at a dose of 0.1 mg/kg, at a weekly administration rate for 6 to 10 weeks. The first day of treatment corresponds to D0. To assess the effects of the treatment, the animals were reviewed 1 month after D0 (M1), 2 months after D0 (M2) and 6 months after D0 (M6). The effects of the treatment were assessed with regard to: • the local signs, the functional signs and the test of locomotion after flexure as defined during inclusion of the animal into the test • a radiological examination to assess the change in the radiological signs • an assessment of the resumption of the animal's sporting activity. […] A clinical study was carried out to evaluate the effects of a treatment with disodium tiludronate on horses which develop lameness during enthesopathy of the insertion of the tendons and the ligaments. The test procedure and the clinical monitoring of the animals were the same as those described in Example 1, except that the local, functional and radiological signs were evaluated in the region of the tendon or ligament insertions at the source of lameness. 6 horses were included in this test. The results obtained were as follows (expressed as a percentage of animals present in each category): […]

[5] = Examination at M1 (1 month after D0)
[6] = Examination at M2 (2 months after D0)
[7] = Examination at M6 (6 months after D0)

O=P(O)(O)C(Sc1ccc(Cl)cc1)P(=O)(O)O [disodium tiludronate, 4-chlorophenylthiomethylenebisphosphonic acid]
percentage of animals in category Average [1, 5]: 38% | percentage of animals in category Favourable [1, 5]: 46% | percentage of animals in category Mediocre [1, 5]: 4% | percentage of animals in category Poor [1, 5]: 4% | percentage of animals in category Very favourable [1, 5]: 8% | percentage of animals in category Average [1, 6]: 26% | percentage of animals in category Favourable [1, 6]: 43% | percentage of animals in category Mediocre [1, 6]: 5% | percentage of animals in category Poor [1, 6]: 0% | percentage of animals in category Very favourable [1, 6]: 26% | percentage of animals in category Average [1, 7]: 27% | percentage of animals in category Favourable [1, 7]: 46% | percentage of animals in category Mediocre [1, 7]: 9% | percentage of animals in category Poor [1, 7]: 0% | percentage of animals in category Very favourable [1, 7]: 18% | time at which the benefit of the treatment is optimal ([1]; after administration of the treatment is started): 2 months | share of animals with complete recovery ([1]; at the end of administration of the treatment): a quarter of the animals | radiological examination of the palmar region ([1]; pathological radiological signs): did not reveal any change in kinetics of the pathological radiological signs | percentage of animals in category Average [2, 5]: 40% | percentage of animals in category Favourable [2, 5]: 0% | percentage of animals in category Mediocre [2, 5]: 0% | percentage of animals in category Poor [2, 5]: 20% | percentage of animals in category Very favourable [2, 5]: 40% | percentage of animals in category Average [2, 6]: 20% | percentage of animals in category Favourable [2, 6]: 40% | percentage of animals in category Mediocre [2, 6]: 0% | percentage of animals in category Poor [2, 6]: 20% | percentage of animals in category Very favourable [2, 6]: 20% | percentage of animals in category Average [2, 7]: 0% | percentage of animals in category Favourable [2, 7]: 0% | percentage of animals in category Mediocre [2, 7]: 40% | percentage of animals in category Poor [2, 7]: 0% | percentage of animals in category Very favourable [2, 7]: 60% | percentage of animals in category Average [3, 5]: 60% | percentage of animals in category Favourable [3, 5]: 40% | percentage of animals in category Mediocre [3, 5]: 0% | percentage of animals in category Poor [3, 5]: 0% | percentage of animals in category Very favourable [3, 5]: 0% | percentage of animals in category Average [3, 6]: 0% | percentage of animals in category Favourable [3, 6]: 60% | percentage of animals in category Mediocre [3, 6]: 0% | percentage of animals in category Poor [3, 6]: 0% | percentage of animals in category Very favourable [3, 6]: 40% | percentage of animals in category Average [3, 7]: 20% | percentage of animals in category Favourable [3, 7]: 20% | percentage of animals in category Mediocre [3, 7]: 0% | percentage of animals in category Poor [3, 7]: 20% | percentage of animals in category Very favourable [3, 7]: 40% | change in lameness induced by bone spavin after treatment ([3]; after treatment): favourable to very favourable in most of the animals | percentage of animals in category Average [4, 5]: 33% | percentage of animals in category Favourable [4, 5]: 50% | percentage of animals in category Mediocre [4, 5]: 17% | percentage of animals in category Poor [4, 5]: 0% | percentage of animals in category Very favourable [4, 5]: 0% | percentage of animals in category Average [4, 6]: 33% | percentage of animals in category Favourable [4, 6]: 67% | percentage of animals in category Mediocre [4, 6]: 0% | percentage of animals in category Poor [4, 6]: 0% | percentage of animals in category Very favourable [4, 6]: 0% | percentage of animals in category Average [4, 7]: 0% | percentage of animals in category Favourable [4, 7]: 40% | percentage of animals in category Mediocre [4, 7]: 20% | percentage of animals in category Poor [4, 7]: 0% | percentage of animals in category Very favourable [4, 7]: 40%
